Measured values taken from the supplement of paper PMC13380429.

What was measured:
Details in all cases: 72 h
U2OS [1] = test: cell viability relative to DMSO; higher = less toxic
Vero E6 [2] = test: as above
Caco-2 [3] = test: as above
Calu-3 [4] = test: as above
HepG2 [5] = test: as above
U2OS [6] = test: relative viability EC50 (midpoint between 100% and the lowest measured viability); higher = less toxic
Vero E6 [7] = test: as above
Caco-2 [8] = test: as above
Calu-3 [9] = test: as above
HepG2 [10] = test: as above
U2OS [11] = test: drug sensitivity score (DSS) for viability; higher = more toxic; extreme values may be limits of the assay
Vero E6 [12] = test: as above
Caco-2 [13] = test: as above
Calu-3 [14] = test: as above
HepG2 [15] = test: as above

Row | Structure (SMILES) | cell viability (U2OS [1]; 1 nM) [%] | cell viability (U2OS [1]; 10 nM) [%] | cell viability (U2OS [1]; 100 nM) [%] | cell viability (U2OS [1]; 1000 nM) [%] | cell viability (U2OS [1]; 10000 nM) [%] | cell viability (Vero E6 [2]; 1 nM) [%] | cell viability (Vero E6 [2]; 10 nM) [%] | cell viability (Vero E6 [2]; 100 nM) [%] | cell viability (Vero E6 [2]; 1000 nM) [%] | cell viability (Vero E6 [2]; 10000 nM) [%] | cell viability (Caco-2 [3]; 1 nM) [%] | cell viability (Caco-2 [3]; 10 nM) [%] | cell viability (Caco-2 [3]; 100 nM) [%] | cell viability (Caco-2 [3]; 1000 nM) [%] | cell viability (Caco-2 [3]; 10000 nM) [%] | cell viability (Calu-3 [4]; 1 nM) [%] | cell viability (Calu-3 [4]; 10 nM) [%] | cell viability (Calu-3 [4]; 100 nM) [%] | cell viability (Calu-3 [4]; 1000 nM) [%] | cell viability (Calu-3 [4]; 10000 nM) [%] | cell viability (HepG2 [5]; 1 nM) [%] | cell viability (HepG2 [5]; 10 nM) [%] | cell viability (HepG2 [5]; 100 nM) [%] | cell viability (HepG2 [5]; 1000 nM) [%] | cell viability (HepG2 [5]; 10000 nM) [%] | relative viability EC50 (U2OS [6]) [µM] | relative viability EC50 (Vero E6 [7]) [µM] | relative viability EC50 (Caco-2 [8]) [µM] | relative viability EC50 (Calu-3 [9]) [µM] | relative viability EC50 (HepG2 [10]) [µM] | drug sensitivity score (U2OS [11]) | drug sensitivity score (Vero E6 [12]) | drug sensitivity score (Caco-2 [13]) | drug sensitivity score (Calu-3 [14]) | drug sensitivity score (HepG2 [15])
1 | NC1=NC(=O)N([C@H]2C[C@H](O)[C@@H](CO)O2)CN1 [KP-1212] | 92.6 | 102 | 95.5 | 99.7 | 103 | 99.8 | 98.7 | 97.9 | 92.1 | 105 | 89.9 | 104 | 89 | 103 | 99.8 | 93.3 | 90.5 | 94.3 | 98.9 | 98.8 | 99.1 | 95 | 100 | 98.3 | 93.9 | > 10 | > 10 | > 10 | > 10 | > 10 | 0 | 0 | 0 | 0 | 0
2 | CC(=O)N[C@@H](Cc1c[nH]c2ccccc12)C(=O)OCc1cc(C(F)(F)F)cc(C(F)(F)F)c1 [L-732,138] | 96.7 | 94.7 | 97.4 | 94.4 | 99.2 | 89.1 | 97.3 | 86.3 | 95.3 | 109 | 91.7 | 92.8 | 96.4 | 97.5 | 92.8 | 95.4 | 102 | 92.6 | 103 | 102 | 91.1 | 106 | 105 | 104 | 105 | > 10 | > 10 | > 10 | > 10 | > 10 | 0 | 0 | 0 | 0 | 0
3 | CN(C)C(=O)CCSC(SCCC(=O)O)c1cccc(/C=C/c2ccc3ccc(Cl)cc3n2)c1 (stereo not given) [MK-571] | 102 | 101 | 97.2 | 94.3 | 101 | 98.4 | 93.5 | 99.6 | 99.1 | 91.5 | 97.8 | 92.2 | 95 | 92.6 | 95.2 | 101 | 97.5 | 101 | 101 | 104 | 102 | 106 | 97.7 | 108 | 95.7 | > 10 | > 10 | > 10 | > 10 | > 10 | 0 | 0 | 0 | 0 | 0
4 | C#CCN1C(C)=C(C(=O)OC)C(c2cccc([N+](=O)[O-])c2)C(C(=O)OCC)=C1C (stereo not given) [MRS-1845] | 107 | 97.8 | 105 | 100 | 97.2 | 94.1 | 99.6 | 98 | 99.3 | 99 | 92 | 98.1 | 96.9 | 88.6 | 85.4 | 99.5 | 91.3 | 95.6 | 98.3 | 90.6 | 95.2 | 105 | 91.3 | 106 | 95.7 | > 10 | > 10 | > 10 | > 10 | > 10 | 0 | 0 | 0.3 | 0 | 0
5 | CC(=O)NCC(=O)N[C@H](CCC(=O)O)C(=O)O [N-acetylglycyl-D-glutamic-acid] | 102 | 102 | 97.7 | 102 | 99.4 | 109 | 99.9 | 103 | 97 | 99.6 | 91.3 | 104 | 93 | 103 | 101 | 94.5 | 106 | 98 | 93 | 95.7 | 110 | 95.7 | 98.6 | 102 | 100 | > 10 | > 10 | > 10 | > 10 | > 10 | 0 | 0 | 0 | 0 | 0
6 | c1ccc2sc(SN3CCOCC3)nc2c1 [N-oxydiethylenebenzothiazole-2-sulfenamide] | 96.9 | 105 | 94.1 | 99.1 | 102 | 97 | 94.5 | 99.6 | 104 | 112 | 86.7 | 92.6 | 92.5 | 92.5 | 93.8 | 104 | 101 | 97.4 | 83.3 | 110 | 101 | 97.1 | 98.9 | 115 | 111 | > 10 | > 10 | > 10 | > 10 | > 10 | 0 | 0 | 0 | 0 | 0
7 | CC1(C)Oc2ccc(C#N)cc2[C@@H](OC2=CC(=O)CC2)[C@@H]1O [PCO-400] | 107 | 95.8 | 98.8 | 90.6 | 99.8 | 102 | 97.3 | 97.7 | 102 | 94.6 | 113 | 90.5 | 99.6 | 92.8 | 103 | 96.6 | 95.9 | 110 | 102 | 103 | 101 | 97 | 109 | 105 | 86.9 | > 10 | > 10 | > 10 | > 10 | > 10 | 0 | 0 | 0 | 0 | 0
8 | CCCC(=O)C1CCN(c2ncnc3c2CN(C(=O)c2ccc(-c4ccccc4)cc2)CC3)CC1 [PK-THPP] | 106 | 98.9 | 103 | 97 | 95.6 | 102 | 105 | 99.7 | 104 | 98.3 | 105 | 99.8 | 100 | 100 | 75.3 | 106 | 101 | 98.9 | 105 | 101 | 98.9 | 99.1 | 91.2 | 94.9 | 93.6 | > 10 | > 10 | > 10 | > 10 | > 10 | 0 | 0 | 0.9 | 0 | 0
9 | O=C(OCCN1CCOCC1)C1(c2ccccc2)CCCCC1 [PRE-084] | 99.3 | 100 | 96.5 | 107 | 97.4 | 100 | 99.7 | 106 | 102 | 105 | 108 | 102 | 93.9 | 90.8 | 89.1 | 101 | 107 | 97.2 | 103 | 93 | 106 | 102 | 95.6 | 108 | 100 | > 10 | > 10 | > 10 | > 10 | > 10 | 0 | 0 | 0.4 | 0 | 0
10 | Cc1cc(OCCCS(C)(=O)=O)cc(C)c1-c1cccc(COc2ccc3c(c2)OC[C@H]3CC(=O)O)c1 [TAK-875] | 95.6 | 98.7 | 96.9 | 96.7 | 94.3 | 100 | 106 | 97.3 | 98.7 | 96.3 | 99.8 | 101 | 89.3 | 85.4 | 77.8 | 98.2 | 105 | 99.8 | 111 | 102 | 93.8 | 97.3 | 95.9 | 94.4 | 96.7 | > 10 | > 10 | > 10 | > 10 | > 10 | 0 | 0 | 2.5 | 0 | 0
11 | CN1C/C=C/CCOc2cccc(c2)-c2ccnc(n2)Nc2cccc(c2)C1 [TG-02] | 102 | 101 | 86 | 2.5 | 1.8 | 99.4 | 97.8 | 90 | 13.6 | 5.6 | 89.8 | 88.2 | 70.4 | 28.4 | 38.9 | 97.1 | 97.7 | 87.7 | 43.4 | 51.8 | 111 | 104 | 79.2 | 9.1 | 3.2 | 0.204 | 0.297 | 0.105 | 0.167 | 0.207 | 20 | 17.1 | 16.2 | 12.4 | 19.3
12 | O.O=[Si]=O.O=[Si]=O.O=[Si]=O.O=[Si]=O.[O]=[Mg].[O]=[Mg].[O]=[Mg] [Talc] | 96.7 | 98.3 | 95.9 | 100 | 95.3 | 95.7 | 104 | 103 | 97 | 103 | 97.2 | 102 | 94.7 | 101 | 90 | 87 | 98.1 | 89.8 | 107 | 81.3 | 106 | 95.1 | 106 | 95.4 | 96.7 | > 10 | > 10 | > 10 | > 10 | > 10 | 0 | 0 | 0 | 0.2 | 0
13 | CS(=O)(=O)c1ccc(-c2cnc(N)c(C(=O)Nc3ccccc3)n2)cc1 [VE-821] | 102 | 95.7 | 96.9 | 93.1 | 91.6 | 99.1 | 95.7 | 97.1 | 98 | 94 | 102 | 94.8 | 101 | 95.1 | 97.4 | 99.1 | 94.7 | 102 | 95.1 | 95.3 | 97.3 | 99.3 | 95 | 98.6 | 84.2 | > 10 | > 10 | > 10 | > 10 | > 10 | 0 | 0 | 0 | 0 | 0.4
14 | CCOc1cc(C(=O)N2CCC(N3CCN(C)CC3)CC2)ccc1Nc1ncc2c(n1)N(C1CCCC1)c1ccccc1C(=O)N2C [XMD17-109] | 99.6 | 95.6 | 101 | 89.5 | 28.4 | 94.3 | 97.1 | 94.4 | 62.1 | 8.8 | 96.1 | 104 | 99 | 81.6 | 32 | 104 | 87.2 | 99 | 99 | 4.4 | 101 | 105 | 94.2 | 76.9 | 25.2 | 2.01 | 1.21 | 1.48 | 3.09 | 1.45 | 5.7 | 9.5 | 6.5 | 5.5 | 7.2
